The structures appear in SMILES notation. pIC50: −log10 of the molar value.

Here are results for 13 compounds from patent US9862716B2, “TRKA kinase inhibitors, compositions and methods thereof” (Merck Sharp & Dohme Corp., priority 2014, dated 2018).

The target in this assay is T1, human TrkA receptor (Homo sapiens, UniProt P04629).
T1 construct: host or cells: U2OS cells (PathHunter cell line)
T1 sequence (P04629 33-796): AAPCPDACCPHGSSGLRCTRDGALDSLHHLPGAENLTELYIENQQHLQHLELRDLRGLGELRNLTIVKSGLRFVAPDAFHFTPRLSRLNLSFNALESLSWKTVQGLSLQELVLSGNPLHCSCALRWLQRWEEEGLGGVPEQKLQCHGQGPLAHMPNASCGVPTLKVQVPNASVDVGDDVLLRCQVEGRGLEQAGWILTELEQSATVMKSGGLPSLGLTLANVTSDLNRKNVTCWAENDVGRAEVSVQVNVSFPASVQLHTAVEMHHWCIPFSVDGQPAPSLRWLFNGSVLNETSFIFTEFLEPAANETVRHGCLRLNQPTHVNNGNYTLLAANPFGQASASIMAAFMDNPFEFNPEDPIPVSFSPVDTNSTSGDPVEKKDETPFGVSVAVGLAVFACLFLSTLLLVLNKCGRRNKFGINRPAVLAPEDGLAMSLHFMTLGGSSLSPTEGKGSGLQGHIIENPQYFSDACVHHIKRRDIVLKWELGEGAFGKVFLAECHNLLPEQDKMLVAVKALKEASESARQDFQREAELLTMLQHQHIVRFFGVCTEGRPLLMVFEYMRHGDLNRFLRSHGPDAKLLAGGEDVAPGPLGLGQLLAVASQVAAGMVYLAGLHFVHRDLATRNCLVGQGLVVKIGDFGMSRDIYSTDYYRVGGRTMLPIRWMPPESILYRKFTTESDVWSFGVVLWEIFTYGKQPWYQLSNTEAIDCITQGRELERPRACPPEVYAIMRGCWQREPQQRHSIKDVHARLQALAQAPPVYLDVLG
Put plainly: DiscoverX PathHunter TrkA functional assay (NGF-stimulated U2OS cells). The conditions noted are these: U2OS cells expressing human TrkA-PK, Shc1-EA and p75NTR; compound 1 h, then NGF at ~80% of maximal response for 3 h; luminescence. The class given is cell-based.
Consider `Cn1ccc(-c2cc(C(=O)Nc3c(-c4ccncn4)nc4ccccn34)ccc2C(F)(F)F)n1` [Compound 8, 3-(1-methyl-1H-pyrazol-3-yl)-N-(2-pyrimidin-4-ylimidazo[1,2-a]pyridin-3-yl)-4-(trifluoromethyl) benzamide], for which the pIC50 is 6.25.
In the case of `O=C(Nc1c(-c2ccccc2)nc2ccccn12)c1ccc(C(F)(F)F)c(-c2cc[nH]n2)c1` [Compound 9, N-(2-phenylimidazo[1,2-a]pyridin-3-yl)-3-(1H-pyrazol-3-yl)-4-(trifluoromethyl) benzamide] it was 8.06; in that of `O=C(Nc1c(-c2ccno2)nc2ccccn12)c1ccc(C(F)(F)F)cc1F` [Compound 10, 2-fluoro-N-(2-isoxazol-5-ylimidazo[1,2-a]pyridin-3-yl)-4-(trifluoromethyl) benzamide], 5.72; in that of `O=C(Nc1c(-c2ccccc2)nc2ccccn12)c1ccc(C(F)(F)F)c(-c2ccn(C(F)F)n2)c1` [Compound 11, 3-[1-(difluoromethyl)-1H-pyrazol-3-yl]-N-(2-phenylimidazo[1,2-a]pyridin-3-yl)-4-(trifluoromethyl) benzamide], 8.49.
Regarding `Cn1ccc(-c2cc(C(=O)Nc3c(-c4ccccc4)nc4sccn34)ccc2C(F)(F)F)n1` [Compound 12, 3-(1-methyl-1H-pyrazol-3-yl)-N-(6-phenylimidazo[2,1-b][1,3]thiazol-5-yl)-4-(trifluoromethyl) benzamide], the pIC50 was 8.72.
For the compound `Cc1cnn(-c2nc3ccccn3c2NC(=O)c2ccc(C(F)(F)F)c(-c3ccn(C)n3)c2)c1` [Compound 13, 3-(1-methyl-1H-pyrazol-3-yl)-N-[2-(4-methyl-1H-pyrazol-1-yl)imidazo[1,2-a]pyridin-3-yl]-4-(trifluoromethyl) benzamide], the pIC50 is 7.77.
Consider `Cc1coc(-c2cc(C(=O)Nc3c(-c4ccccc4)nc4ccccn34)ccc2C(F)(F)F)n1` [Compound 14, 3-(4-methyl-1,3-oxazol-2-yl)-N-(2-phenylimidazo[1,2-a]pyridin-3-yl)-4-(trifluoromethyl) benzamide], for which the pIC50 was 8.48. Compared with the last compound, the pIC50 is 0.71 log units higher.
`Cc1ccc(C(=O)Nc2c(-c3ccccc3)nc3ccccn23)cc1-c1ccn(C)n1` [Compound 15, 4-methyl-3-(1-methyl-1H-pyrazol-3-yl)-N-(2-phenylimidazo[1,2-a]pyridin-3-yl)benzamide] gave a negative-log IC50 (pIC50) of 7.59.
To `Cc1nc(-c2nc3ccccn3c2NC(=O)c2ccc(C(F)(F)F)c(-c3ccn(C)n3)c2)co1` [Compound 16, N-[2-(2-methyl-1,3-oxazol-4-yl)imidazo[1,2-a]pyridin-3-yl]-3-(1-methyl-1H-pyrazol-3-yl)-4-(trifluoromethyl) benzamide] belongs 6.25.
For the compound `Cn1ccc(-c2cc(C(=O)Nc3c(-c4ccccc4)nc4scnn34)ccc2C(F)(F)F)n1` [Compound 17, 3-(1-methyl-1H-pyrazol-3-yl)-N-(6-phenylimidazo[2,1-b][1,3,4]thiadiazol-5-yl)-4-(trifluoromethyl) benzamide], the pIC50 was 8.04.
`O=C(Nc1c(-c2ccccc2)nc2c(F)cccn12)c1ccc(C(F)(F)F)c(-c2cc[nH]n2)c1` [Compound 18, N-(8-fluoro-2-phenylimidazo[1,2-a]pyridin-3-yl)-3-(1H-pyrazol-3-yl)-4-(trifluoromethyl) benzamide] had a pIC50 of 7.96.
In the case of `Cc1nc(-c2nc3ccccn3c2NC(=O)c2ccc(C(F)(F)F)c(-c3ccn(C)n3)c2)cs1` [Compound 19, 3-(1-methyl-1H-pyrazol-3-yl)-N-[2-(2-methyl-1,3-thiazol-4-yl)imidazo[1,2-a]pyridin-3-yl]-4-(trifluoromethyl) benzamide] it was 7.85.
The compound `Cn1ccc(-c2cc(C(=O)Nc3c(-c4ccccc4)nc4ccccn34)c(Cl)cc2C(F)(F)F)n1` [Compound 20, 2-chloro-5-(1-methyl-1H-pyrazol-3-yl)-N-(2-phenylimidazo[1,2-a]pyridin-3-yl)-4-(trifluoromethyl) benzamide] gave a pIC50 of 9.14.

In general, pIC50 refers to −log10 of the IC50, conventionally taken in molar units.
